The values that follow are results of earlier work, collected in patent US6482863B2, “Insect repellant formulation deliverable by piezoelectric device” (S. C. Johnson & Son, Inc., priority 2000, dated 2002).

The conditions of data set [1]: at 20° C.
For data set [2] the following is noted: at 25° C.

SMILES strings stand for the structures.

Turning to `COCC(C)O` (stereo not shown) [Propylene glycol methyl ether], the “vapor pressure of solvent” value in data set [1] was 8.1 mm Hg.
For the compound `COCC(C)OCC(C)OC` (stereo not shown) [Dipropylene glycol dimethyl ether], the water solubility is recorded as 35 g/100 ml water. The viscosity of solvent in data set [2] is recorded as 1 cp. The “vapor pressure of solvent” value in data set [1] is reported as 0.55 mm Hg.
